Common to all, as to assay type: cell-based
The test system of test [1] is BHY cells (human oral squamous cell carcinoma cells). Briefly: alamarBlue proliferation assay with BHY cells. To be noted: 72 h, 3 days treatment, single assay (preliminary), relative to DMSO basis level 1.0, read-out: equally weighted arithmetic mean (AVE) of six normalized fluorescence intensity values, activity range (RES: AVEw). The procedure: Compounds were tested on BHY cells using the alamarBlue® proliferation assay in analogy to the above described method with seeding the cells at an initial number of 4000 cells per 96-well and a duration of treatment with compounds for 3 days.
BHY cells were cultivated according to the protocol of the provider (but at 5% instead of 10% CO2) in DMEM medium (Fisherscientific, #11584456) containing 10% fetal bovine serum (Fisherscientific, #15517589).
A compound is considered as a growth inhibitor of BHY cells, if—at a reference concentration of 40 μM—the equally weighted arithmetic mean (AVE) of the six normalized fluorescence intensity values after addition of the corresponding standard deviation amounts to 0.9 or lower, in particular to 0.8 or lower, 0.7 or lower, 0.6 or lower, 0.4 or lower, and 0.2 or lower, relative to the overall basis level of 1.0. The overall basis level was calculated as the weighted arithmetic mean (AVEw) of all normalized values from the DMSO control measurements. The corresponding combined standard deviation for the DMSO values amounts to less than 1·10^−2. The corresponding standard deviations for the tested compounds were calculated including the Gauß′ error propagation associated with the performed calculation for the normalization. The weighted arithmetic mean (AVEw) and the combined standard deviation for RES was calculated in analogy to DMSO. Outlier analyses were performed as described above.
(Resazurin is reduced to fluorescent resorufin, in cell work by metabolically active cells.)

The subject of test [2] is C2C12 cells (murine myoblast cells). Briefly: alamarBlue proliferation assay with C2C12 cells. To be noted: 40 μM, 3 days treatment, single assay (preliminary), relative to DMSO basis level 1.0. How it is done:
Compounds were tested on C2C12 cells using the alamarBlue® proliferation assay in analogy to the above described method with seeding the cells at an initial number of 2000 cells per 96-well and a duration of treatment with compounds for 3 days.
In one embodiment, two compounds of the invention were found so far to inhibit the growth of C2C12 cells (murine myoblast cells) obtainable from the Deutsche Sammlung von Mikroorganismen and Zellkulturen GmbH (DSMZ) under the accession number ACC 565. C2C12 cells were cultivated according to the protocol of the provider in RPMI 1640 medium (Fisherscientific, #11554526) containing 10% fetal bovine serum (Fisherscientific, #15517589).
A compound is considered as a growth inhibitor of C2C12 cells, if—at a reference concentration of 40 μM—the equally weighted arithmetic mean (AVE) of the six normalized fluorescence intensity values after addition of the corresponding standard deviation amounts to 0.9 or lower, in particular to 0.8 or lower, 0.7 or lower, 0.6 or lower, 0.4 or lower, and 0.2 or lower, relative to the overall basis level of 1.0. The overall basis level was calculated as the equally weighted arithmetic mean (AVE) of the six normalized values from the DMSO control measurements in analogy to the calculations performed for the test-compounds. […]

Test [3] deals with HeLa cells (human cervical adenocarcinoma cells). Briefly: alamarBlue proliferation assay with HeLa cells. To be noted: relative to DMSO basis level 1.0. The procedure: The antiproliferative activities of compounds falling under formula I, formula II, formula III, formula IV and formula V were investigated on cells or cell lines originating from a disorder of the myeloid cell compartment, the neuroendocrine system, the cervix, and the mucosal epithelium, as well as from the skin epithelium. To this end, HL-60 cells, TT cells, HeLa cells, CAL-27 cells and human primary epidermal keratinocytes (HPEK) were seeded into 96-well plates suitable for fluorescence assays (CORNING #3598) at following initial cell numbers: 1000 cells per well for HL-60; 9000 cells per well for TT; 2000 cells per well for HeLa, 2000 cells per well for CAL-27, 2000 cells per well for HPEK. […] The readout was taken with a multi-well plate-reader in the fluorescence mode with applying a filter for excitation at 560 nm (band width 10 nm) and for emission at 590 nm (band width 10 nm). […]
The assays were performed in duplicate or more replicates of independent single experiments each containing a six-fold replicate for every condition. For every individual plate, the measured fluorescence intensity values of the conditions with compound treatment were normalized against the corresponding equally weighted arithmetic mean of the fluorescence intensity values of the six DMSO treated control wells in order to obtain the relative values to a baseline level of 1.0. […]

Take `CCC(C)(C)c1ccc(Oc2ccc(C(=O)NO)cc2)cc1` [Compound 171, N-hydroxy-4-(4-(tert-pentyl)phenoxy)benzamide]: in test [1], the activity at 40 µM fell in the range of 40 to 60%. Take `O=C(NO)c1ccc(Oc2ccc(C3CCCCC3)cc2)cc1` [Compound 182, 4-(4-cyclohexylphenoxy)-N-hydroxybenzamide]: in test [1], the activity at 40 µM is 20 to 40%. Same read-out and setting: the figure for `O=C(NO)c1ccc(Oc2ccc(C34CC5CC(CC(C5)C3)C4)cc2)cc1` [Compound 186, 4-(4-(Adamantan-1-yl)phenoxy)-N-hydroxybenzamide] is 20 to 40%; for `CC(C)c1ccc(Oc2ccc(C(=O)NO)cn2)cc1` [Compound 272, N-hydroxy-6-(4-isopropylphenoxy)nicotinamide] it is 20 to 40%. Still for that read-out and setting: the figure for `O=C(NO)c1ccc(Oc2ccc(C3CCCCC3)cc2)nc1` [Compound 284, 6-(4-Cyclohexylphenoxy)-N-hydroxynicotinamide] is 20 to 40%; for `O=C(NO)c1ccc(Oc2ccc(C34CC5CC(CC(C5)C3)C4)cc2)nc1` [Compound 288, 6-(4-((3r,5r,7r)-adamantan-1-yl)phenoxy)-N-hydroxynicotinamide] it is 20 to 40%; for `O=C(NO)c1ccc(Oc2ccc(C34CC5CC(CC(C5)C3)C4)cc2)c(F)c1` [Compound 544, 4-(4-(Adamantan-1-yl)phenoxy)-3-fluoro-N-hydroxybenzamide] it is 20 to 40%. For the compound `O=C(NO)c1cnc(Oc2ccc(C3CCCCC3)cc2)c(F)c1` [Compound 644, 6-(4-Cyclohexylphenoxy)-5-fluoro-N-hydroxynicotinamide], the activity at 40 µM in test [1] was in the range of 60 to 70%.

For `Oc1ccc(C=Cc2cc(O)cc(O)c2)cc1` [RES, resveratrol, reference compound], the activity at 40 µM in test [1] is 60%. Besides, the “equally weighted arithmetic mean (AVE) of six normalized fluorescence intensity values, activity range” value in test [2] is listed as 0.3 ± 0.0. Further, in test [3] (40 μM), the “weighted arithmetic mean (AVEw) of normalized fluorescence intensity, activity range” value came out at 0.4 ± 0.0. In test [3] (control RES at 20 μM), the “weighted arithmetic mean (AVEw) of normalized fluorescence intensity” value was 0.9 ± 0.0.

The values above are taken from US12600696B2 (XENIOPRO GMBH, priority 2017, dated 2026).
